Data from US8093207B2, “Fast-acting oral peptide pharmaceutical products” (Unigene Laboratories, Inc., priority 2005, dated 2012).

What was measured:
[1] = Bioavailability of vasopressin, calcitonin and insulin administered into the duodenum of anesthetized rats
Procedure: Female Wistar rats (250-275 g) (n=3 for each formulation) were anesthetized with ketamine and xylazine prior to the insertion of a cannula in the carotid artery. The cannula was fitted to a three way valve through which blood was sampled and replaced with physiological saline. A midline incision was made in the abdominal cavity and 0.5 ml of formulation was injected directly into the exposed duodenum. The pH of the formulation was adjusted by mixing varying amounts of equal molar concentrations of citric acid and sodium citrate. Blood (0.5 ml) was collected before and at 5, 15, 30, 60 and 120 minutes after the administration of the formulation. Samples of blood were centrifuged for 10 minutes at 2600 g and the resulting plasma supernatant was stored at −20° C. The concentration of calcitonin in plasma was determined by a competitive radioimmunoassay. The absolute bioavailability (i.e., relative to an intravenous dose of calcitonin) was calculated from the areas under the curve obtained from plots of the plasma concentration of calcitonin as a function of time.
Samples of blood were removed at various times and analyzed for the indicated peptide as described previously.

[2] = Dissolution of human insulin in water with or without citric acid
[3] = Absorption of non-sCT peptides from non-enteric coated capsules given orally to fasted dogs; settings: in vivo, 2.4 mg; Table 9: dog, oral non-enteric capsule, at least 500 mg citric acid, 50 mg lauroylcarnitine; ± sem
Procedure: Size 00 UPMC capsules were each filled with a powdered blend consisting of at least 500 mg citric acid, 50 mg lauroylcarnitine and 1 of the indicated peptides. Each week eight fasted dogs were orally administered 1 of the uncoated capsules. After administration of the capsule, samples of blood were taken at 15 minute intervals from an indwelling catheter for up to 4 hours. The blood samples were centrifuged and the resulting plasma supernatants were stored frozen at −20° C.

[4] = Absorption of sCT from orally administered capsules (enteric-coated or uncoated) in fasted dogs, plasma ELISA; assay type: in vivo, dog; settings: for Tmax / Cmax: plasma
Source text: Size 00 UPMC (hydroxypropylmethyl cellulose) capsules were each filled with a powdered blend consisting of citric acid, lauroylcarnitine, and salmon calcitonin (sCT). Half the capsules were coated with an enteric coating solution of […] L30D-55 (a methacrylic acid co-polymer with methacrylic acid methyl ester, an enteric coating available from ROUM Tech Inc., Maidan, Mass.), and the remaining capsules were not enteric coated. The coating process corresponded to that taught in U.S. Pat. No. 6,086,918 at col. 11, line 50 to col. 12, line 11. Eight fasted dogs were each orally administered 1 uncoated capsule and 2 weeks later they were each orally administered an enteric-coated capsule. After administration of each capsule, samples of blood were taken at 15 minute intervals from an indwelling catheter for up to 4 hours. The blood samples were centrifuged and the resulting plasma supernatants were stored frozen at −20° C. The plasma samples were subsequently analyzed for sCT by a direct ELISA. […] Nearly three times as much sCT was detected in the plasma of dogs given enteric-coated capsules than non-coated capsules. The maximum concentration of sCT in dogs orally administered uncoated capsules was seen within 30 minutes after their administration. The maximum concentration of sCT in dogs given enteric-coated capsules was seen 98 minutes after their administration. […] The increased speed can be advantageous, especially in the case of peptides wherein speed is more important than overall bioavailability (e.g., pain relievers). There can also be an advantage in production efficiency when the enteric coating step is not required.
Size 00 UPMC (hydroxypropylmethyl cellulose) capsules were each filled with a powdered blend consisting of the indicated amount of citric acid, lauroylcarnitine, sucrose and salmon calcitonin (sCT). Each week eight fasted dogs were each orally administered 1 of the uncoated capsules. After administration of the capsule, samples of blood were taken at 15 minute intervals from an indwelling catheter for up to 4 hours. The blood samples were centrifuged and the resulting plasma supernatants were stored frozen at −20° C. The plasma samples were subsequently analyzed for sCT by a direct ELISA. […] In the absence of citric acid but in the presence of lauroylcarnitine the maximum concentration of sCT in the plasma of dogs decreased by 80%. In the absence of citric acid and lauroylcarnitine, the maximum concentration of sCT in dogs decreased by 99%.

[5] = Blood levels of salmon calcitonin after direct injection of active components into duodenum, ilium or colon; assay type: in vivo; settings: other: injected directly into the duodenum
Source text: The pH-lowering agent is believed to lower the local pH (where the active agent has been released) to levels below the optimal range for many intestinal proteases. This decrease in pH reduces the proteolytic activity of the intestinal proteases, thus affording protection to the peptide from potential degradation should the peptide be present within the intestine. The activity of these proteases is diminished by the temporarily acidic environment provided by the invention. It is preferred that sufficient acid be provided that local intestinal pH is lowered temporarily to 5.5 or below, preferably 4.7 or below and more preferably 3.5 or below. The sodium bicarbonate test described below (in the section captioned “the pH-Lowering Agent”) is indicative of the required acid amount. […] The absorption enhancers of the invention synergistically promote peptide absorption into the blood while conditions of reduced proteolytic activity prevail. The mechanism by which the invention is believed to accomplish the goal of enhanced bioavailability is aided by having active components of the finished pharmaceutical product released together as simultaneously as possible.

[6] = cited from earlier work
[7] = female, Wistar, rat, in vivo, 0.1 mg
[8] = female, Wistar, rat, in vivo, 1 mg
[9] = Table 6: rat, intraduodenal, insulin 1 mg with citric acid 48 mg only

## NC(=O)CC[C@@H]1NC(=O)[C@H](Cc2ccccc2)NC(=O)[C@H](Cc2ccc(O)cc2)NC(=O)[C@@H](N)CSSC[C@@H](C(=O)N2CCC[C@H]2C(=O)N[C@@H](CCCN=C(N)N)C(=O)NCC(N)=O)NC(=O)[C@H](CC(N)=O)NC1=O [[Arg^8]-Vasopressin, [Arg^8]-vasopressin]
[1]; [7]
  Cmax: 24.3 ng/mL
  bioavailability: 8.1%
[1]; [8]
  Cmax: 0.62 ng/mL
  bioavailability: 0.38%

## Human Insulin: peptide pharmaceutical frequently administered by injection
[1]; Table 6, rat: lauroylcarnitine included vs citric acid alone
  Increase in absolute bioavailability: 10 fold
[1]; [9]
  Absolute Bioavailability: 0.07%
  Peak Plasma Peptide: 0.56 ng/mL
[1]; Table 6: rat, intraduodenal, peptide 0.1 mg (insulin 1 mg) with citric acid 48 mg and lauroylcarnitine 5 mg
  Peak Plasma Peptide: 18.3 ng/mL
[2]; in the absence of citric acid
  dissolution in water: could not even be dissolved in water
[2]; in the presence of citric acid
  dissolution in water: all of the peptide was easily dissolved

## Cc1cc(O)cc(C)c1C[C@H](N)C(=O)N[C@H](CCCNC(=N)N)C(=O)N[C@@H](Cc1ccccc1)C(=O)N[C@@H](CCCCN)C(N)=O [Dmt-DALDA, H-2,6-dimethyltyrosine-D-Arginine-Phenylalanine-Lysine-NH2]
[3]
  Cmax: 7.48 ± 1.49 ng/mL
  Tmax: 28 min

## CC(C)C[C@H](NC(=O)[C@H](CCCCN)NC(=O)CNC(=O)[C@H](CC(C)C)NC(=O)[C@@H](NC(=O)[C@@H]1CSSC[C@H](N)C(=O)N[C@@H](CO)C(=O)N[C@@H](CC(N)=O)C(=O)N[C@@H](CC(C)C)C(=O)N[C@@H](CO)C(=O)N[C@@H]([C@@H](C)O)C(=O)N1)C(C)C)C(=O)N[C@@H](CO)C(=O)N[C@@H](CCC(N)=O)C(=O)N[C@@H](CCC(=O)O)C(=O)N[C@@H](CC(C)C)C(=O)N[C@@H](Cc1c[nH]cn1)C(=O)N[C@@H](CCCCN)C(=O)N[C@@H](CC(C)C)C(=O)N[C@@H](CCC(N)=O)C(=O)N[C@H](C(=O)N[C@@H](Cc1ccc(O)cc1)C(=O)N1CCC[C@H]1C(=O)N[C@@H](CCCNC(=N)N)C(=O)N[C@H](C(=O)N[C@@H](CC(N)=O)C(=O)N[C@H](C(=O)NCC(=O)N[C@@H](CO)C(=O)NCC(=O)N[C@H](C(=O)N1CCC[C@H]1C(N)=O)[C@@H](C)O)[C@@H](C)O)[C@@H](C)O)[C@@H](C)O [Salmon Calcitonin]
[1]; female, Wistar, rat, in vivo
  Absolute Bioavailability: 4.81%
[1]; [7]
  Cmax: 27.7 ng/mL
[1]; female, Wistar, rat, in vivo, 1 mg, Absolute Bioavailability
  bioavailability: 0.096%
[1]; female, Wistar, rat, in vivo, Absolute Bioavailability
  bioavailability: 4.53%
[1]; rat, in vivo
  Increase in absolute bioavailability: 50 fold
[4]; Table 8, dog: absence of citric acid and lauroylcarnitine
  Decrease of maximum concentration of sCT: 99%
[4]; Table 8, dog: absence of citric acid but presence of lauroylcarnitine
  Decrease of maximum concentration of sCT in plasma: 80%
[4]; Table 8: dog, oral non-enteric capsule, citric acid 0, lauroylcarnitine 0, sucrose 805 mg, sCT 5.31 mg
  Cmax (maximum plasma concentration sCT corrected to 1 mg dose): 0.018 ± 0.012 ng/mL
[4]; Table 8: dog, oral non-enteric capsule, citric acid 824 mg, lauroylcarnitine 0, sucrose 0, sCT 5.31 mg
  Cmax (maximum plasma concentration sCT corrected to 1 mg dose): 4.612 ± 2.766 ng/mL
[4]; dog, po, 5.31 mg, Table 8: dog, oral non-enteric capsule, citric acid 0, lauroylcarnitine 0, sucrose 805 mg, sCT 5.31 mg, sCT only detected in 1 of 8 dogs, read-out: Tmax (converted)
  Tmax: 225 min
[4]; dog, po, 5.31 mg, Table 8: dog, oral non-enteric capsule, citric acid 824 mg, lauroylcarnitine 0, sucrose 0, sCT 5.31 mg, read-out: Tmax (converted)
  Tmax: 24 min
[4]; dog, po, 5.37 mg, Table 8: dog, oral non-enteric capsule, citric acid 679 mg, lauroylcarnitine 67 mg, sucrose 0, sCT 5.37 mg, read-out: Tmax (converted)
  Tmax: 26 min
[4]; dog, po, 6.17 mg, Table 8: dog, oral non-enteric capsule, citric acid 0, lauroylcarnitine 70 mg, sucrose 712 mg, sCT 6.17 mg, read-out: Tmax (converted)
  Tmax: 41 min
[4]; Table 7: dog, oral capsule, enteric coat no, citric acid 643 mg, lauroylcarnitine 66 mg, sCT 13.07 mg, ± sem
  Cmax: 3.29 ± 0.823 ng/mL
[4]; Table 7: dog, oral capsule, enteric coat no, citric acid 643 mg, lauroylcarnitine 66 mg, sCT 13.07 mg, ± sem, read-out: Tmax (time when maximum plasma sCT concentration detected) (converted)
  Tmax: ≤ 30 min
[4]; Table 7: dog, oral capsule, enteric coat yes, citric acid 632 mg, lauroylcarnitine 65 mg, sCT 12.84 mg, ± sem
  Cmax: 15.8 ± 4.2 ng/mL
[4]; Table 7: dog, oral capsule, enteric coat yes, citric acid 632 mg, lauroylcarnitine 65 mg, sCT 12.84 mg, ± sem, read-out: Tmax (time when maximum plasma sCT concentration detected) (converted)
  Tmax: 98 min
[4]; Table 8: dog, oral non-enteric capsule, citric acid 0, lauroylcarnitine 70 mg, sucrose 712 mg, sCT 6.17 mg
  Cmax: 1.02 ± 0.57 ng/mL
[4]; Table 8: dog, oral non-enteric capsule, citric acid 679 mg, lauroylcarnitine 67 mg, sucrose 0, sCT 5.37 mg
  Cmax: 5.43 ± 3.2 ng/mL
[5]
  Tmax: 5 to 15 min
[6]; following subcutaneous administration in man
  half-life: 20 to 40 min
[6]; nasally administered, 200 International units
  peak levels at which effective against osteoporosis: ≥ 10 picograms per milliliter
[6]; notwithstanding rapid decrease in blood levels
  duration of beneficial effect on osteoclasts: more than 24 hours
[6]; patients, high peak levels
  peak levels at which some patients report gastrointestinal distress: ≥ 200 picograms per milliliter
[6]; subcutaneous administration, 100 International units
  peak serum concentration: about 250 picograms per milliliter
